From patent publication US10780090B2, “Heteroaryl compounds useful as inhibitors of SUMO activating enzyme” (Millennium Pharmaceuticals, Inc., priority 2014, dated 2020) come the findings set out here.

The assay deals with recombinant human SAE enzyme (Homo sapiens (Human), UniProt Q9UBT2). Kind of assay: SAE HTRF enzyme assay. It counts as biochemical. As to conditions: for inhibition at 0.111 µM: read-out: Percent Inhibition. A digest of the protocol:
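HTRF read-out using Eu-cryptate anti-Flag and allophycocyanin anti-GST antibodies, added with EDTA stop buffer and read after 2 h at 24 °C. The preceding reaction ran 105 min at 24 °C: 0.11 nM recombinant SAE, 0.5 μM ATP, Sumo-Flag, Ubc9-GST, pH 7.5. Values given as single-concentration inhibition or IC50.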
(In TR-FRET formats the signal depends on donor and acceptor labels being close together.)

The mark [1] stands for this setting: SAE inhibition at compound concentration 0.111 μM.
Where [2] appears, read: SAE inhibition, class symbols, legend in nM.

Each structure is given as a SMILES string. A value given as a limit tells only on which side of the number the result lay.

Chain of recombinant human SAE enzyme (Q9UBT2 whole entry): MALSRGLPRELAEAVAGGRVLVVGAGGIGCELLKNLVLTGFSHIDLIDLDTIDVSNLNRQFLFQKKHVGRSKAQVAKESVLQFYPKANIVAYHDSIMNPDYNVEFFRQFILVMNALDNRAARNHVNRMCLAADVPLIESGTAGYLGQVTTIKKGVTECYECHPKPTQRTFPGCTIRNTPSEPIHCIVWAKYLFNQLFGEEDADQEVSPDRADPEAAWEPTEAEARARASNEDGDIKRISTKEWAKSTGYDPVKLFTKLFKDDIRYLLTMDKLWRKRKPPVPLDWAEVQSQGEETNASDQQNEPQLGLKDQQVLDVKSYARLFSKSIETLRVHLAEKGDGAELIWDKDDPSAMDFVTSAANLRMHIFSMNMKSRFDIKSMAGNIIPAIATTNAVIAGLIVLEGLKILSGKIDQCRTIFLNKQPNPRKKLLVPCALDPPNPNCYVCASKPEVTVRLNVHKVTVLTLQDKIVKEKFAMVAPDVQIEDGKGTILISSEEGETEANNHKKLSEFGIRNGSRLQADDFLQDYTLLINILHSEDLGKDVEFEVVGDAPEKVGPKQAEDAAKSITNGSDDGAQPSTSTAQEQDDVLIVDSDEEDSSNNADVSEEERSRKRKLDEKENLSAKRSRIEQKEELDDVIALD
Chain of recombinant human SAE enzyme (Q9UBE0 whole entry partner): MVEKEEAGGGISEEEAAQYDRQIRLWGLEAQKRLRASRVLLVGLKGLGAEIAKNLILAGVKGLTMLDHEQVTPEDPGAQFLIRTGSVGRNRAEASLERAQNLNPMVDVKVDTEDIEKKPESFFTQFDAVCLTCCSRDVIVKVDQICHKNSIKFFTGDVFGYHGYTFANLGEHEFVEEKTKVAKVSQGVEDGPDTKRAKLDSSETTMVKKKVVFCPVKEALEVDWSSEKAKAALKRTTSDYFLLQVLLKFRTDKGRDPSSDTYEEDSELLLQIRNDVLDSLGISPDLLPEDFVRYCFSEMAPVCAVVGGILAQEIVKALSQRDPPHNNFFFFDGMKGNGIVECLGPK

Broadly, the IC50 is the concentration that inhibits the measured activity by half. As for `NS(=O)(=O)OC[C@H]1C[C@@H](Nc2ncncc2C(=O)c2cc([C@@H]3NCCc4ccccc43)cs2)C[C@@H]1O` (single isomer, unassigned) [I-283a, [(1R,2S,4R)-2-hydroxy-4-{[5-({4-[(1R)-1,2,3,4-tetrahydroisoquinolin-1-yl]-2-thienyl}carbonyl)pyrimidin-4-yl]amino}cyclopentyl]methyl sulfamate or [(1R,2S,4R)-2-hydroxy-4-{[5-({4-[(1S)-1,2,3,4-tetrahydroisoquinolin-1-yl]-2-thienyl}carbonyl)pyrimidin-4-yl]amino}cyclopentyl]methyl sulfamate], under setting [1], the “Percent Inhibition” value was determined as 99%. In addition, the IC50 under setting [2] was under 10 nM.

By inhibition is commonly meant the relative decrease from the control value, in per cent. `Cc1sc(C(=O)c2cncnc2N[C@@H]2C[C@H](COS(N)(=O)=O)[C@@H](O)C2)cc1Sc1cccc(C(F)(F)F)c1` [I-145, [(1R,2S,4R)-2-hydroxy-4-({5-[(5-methyl-4-{[3-(trifluoromethyl)phenyl]sulfanyl}-2-thienyl)carbonyl]pyrimidin-4-yl}amino)cyclopentyl]methyl sulfamate]: where the note is “Concentration 0.111 μM”, the inhibition at 0.111 µM amounted to 93%. For the same molecule, the 50% inhibitory concentration (IC50) (class symbols A/B/C) was under 10 nM.

In the case of `NS(=O)(=O)OC[C@H]1C[C@@H](Nc2ncncc2C(=O)c2cc([C@@H]3OCC(F)(F)c4ccc(Cl)cc43)cs2)C[C@@H]1O` (single isomer, unassigned) [I-289b, [(1R,2S,4R)-4-{[5-({4-[(1R)-7-chloro-4,4-difluoro-3,4-dihydro-1H-isochromen-1-yl]-2-thienyl}carbonyl)pyrimidin-4-yl]amino}-2-hydroxycyclopentyl]methyl sulfamate or [(1R,2S,4R)-4-{[5-({4-[(1S)-7-chloro-4,4-difluoro-3,4-dihydro-1H-isochromen-1-yl]-2-thienyl}carbonyl)pyrimidin-4-yl]amino}-2-hydroxycyclopentyl]methyl sulfamate], the “Percent Inhibition” value under setting [1] was 99%. In addition, the IC50 under setting [2] was under 10 nM.

In the case of `NS(=O)(=O)OC[C@H]1C[C@@H](Nc2ncncc2C(=O)c2cc(CO)cs2)C[C@@H]1O` [I-230, {(1R,2S,4R)-2-hydroxy-4-[(5-{[4-(hydroxymethyl)-2-thienyl]carbonyl}pyrimidin-4-yl)amino]cyclopentyl}methyl sulfamate], the inhibition at 0.111 µM (Concentration 0.111 μM) came out at 26%. Also, the IC50 (class symbols A/B/C) lay in the range of 100 to 1000 nM.

Regarding `Cc1sc(C(=O)c2cncnc2N[C@@H]2C[C@H](COS(N)(=O)=O)[C@@H](O)C2)cc1[C@@H]1OCCc2ccccc21` [I-256b, [(1R,2S,4R)-4-{[5-({4-[(1R)-3,4-Dihydro-1H-isochromen-1-yl]-5-methyl-2-thienyl}carbonyl)pyrimidin-4-yl]amino}-2-hydroxycyclopentyl]methyl sulfamate], the inhibition at 0.111 µM (Concentration 0.111 μM) is 99%. The IC50 (class symbols A/B/C) was under 10 nM.

With `NS(=O)(=O)OC[C@H]1C[C@@H](Nc2ncncc2C(=O)c2ccc(CO)o2)C[C@@H]1O` [I-206, [(1R,2S,4R)-2-hydroxy-4-({5-[5-(hydroxymethyl)-2-furoyl]pyrimidin-4-yl}amino)cyclopentyl]methyl sulfamate], the inhibition at 0.111 µM (Concentration 0.111 μM) came out at 49%. Also, where the note is “class symbols A/B/C”, the IC50 was in the range of 100 to 1000 nM.

In the case of `Cc1ccn(Cc2csc(C(=O)c3cncnc3N[C@@H]3C[C@H](COS(N)(=O)=O)[C@@H](O)C3)c2)c1` [I-170, [(1R,2S,4R)-2-Hydroxy-4-({[5-({4-[(3-methyl-1H-pyrrol-1-yl)methyl]-2-thienyl}carbonyl)pyrimidin-4-yl]amino}cyclopentyl]methyl sulfamate], the “Percent Inhibition” value (Concentration 0.111 μM) turned out to be 91. The IC50 (class symbols A/B/C) lay in the range of 10 to 100 nM.

As for `C[C@](N)(c1cccc(Cl)c1)c1csc(C(=O)c2cncnc2N[C@@H]2C[C@H](COS(N)(=O)=O)[C@@H](O)C2)c1` (single isomer, unassigned) [I-12b, [(1R,2S,4R)-4-{[5-({4-[(1S)-1-amino-1-(3-chlorophenyl)ethyl]-2-thienyl}carbonyl)pyrimidin-4-yl]amino}-2-hydroxycyclopentyl]methyl sulfamate or [(1R,2S,4R)-4-{[5-({4-[(1R)-1-amino-1-(3-chlorophenyl)ethyl]-2-thienyl}carbonyl)pyrimidin-4-yl]amino}-2-hydroxycyclopentyl]methyl sulfamate], the “Percent Inhibition” value (Concentration 0.111 μM) worked out at 100. In addition, for the setting “class symbols A/B/C”, the IC50 was under 10 nM.

As to `Cc1cc2n(n1)CCO[C@H]2c1csc(C(=O)c2cncnc2N[C@@H]2C[C@H](COS(N)(=O)=O)[C@@H](O)C2)c1` (mixture of isomers) [I-332, [(1R,2S,4R)-2-hydroxy-4-{[5-({4-[(4S)-2-methyl-6,7-dihydro-4H-pyrazolo[5,1-c][1,4]oxazin-4-yl]-2-thienyl}carbonyl)pyrimidin-4-yl]amino}cyclopentyl]methyl sulfamate and [(1R,2S,4R)-2-hydroxy-4-{[5-({4-[(4R)-2-methyl-6,7-dihydro-4H-pyrazolo[5,1-c][1,4]oxazin-4-yl]-2-thienyl}carbonyl)pyrimidin-4-yl]amino}cyclopentyl]methyl sulfamate], the “Percent Inhibition” value under setting [1] is listed as 25%. Besides, the IC50 under setting [2] was in the range of 100 to 1000 nM.

For `Cc1sc(C(=O)c2cncnc2N[C@@H]2C[C@H](COS(N)(=O)=O)[C@@H](O)C2)cc1[C@@H]1OCCc2ccc(C(F)(F)F)cc21` (single isomer, unassigned) [I-258a, [(1R,2S,4R)-2-hydroxy-4-{[5-({5-methyl-4-[(1R)-7-(trifluoromethyl)-3,4-dihydro-1H-isochromen-1-yl]-2-thienyl}carbonyl)pyrimidin-4-yl]amino}cyclopentyl]methyl sulfamate or [(1R,2S,4R)-2-hydroxy-4-{[5-({5-methyl-4-[(1S)-7-(trifluoromethyl)-3,4-dihydro-1H-isochromen-1-yl]-2-thienyl}carbonyl)pyrimidin-4-yl]amino}cyclopentyl]methyl sulfamate], for the setting “Concentration 0.111 μM”, the “Percent Inhibition” value is listed as 98. The half-maximal inhibitory concentration (IC50) (class symbols A/B/C) is under 10 nM.

Consider `NS(=O)(=O)OC[C@H]1C[C@@H](Nc2ncncc2C(=O)c2cc([C@@H]3OCC(F)(F)c4ccc(Cl)cc43)cs2)C[C@@H]1O.NS(=O)(=O)OC[C@H]1C[C@@H](Nc2ncncc2C(=O)c2cc([C@H]3OCC(F)(F)c4ccc(Cl)cc43)cs2)C[C@@H]1O` (mixture of isomers) [I-289, [(1R,2S,4R)-4-{[5-({4-[(1R)-7-chloro-4,4-difluoro-3,4-dihydro-1H-isochromen-1-yl]-2-thienyl}carbonyl)pyrimidin-4-yl]amino}-2-hydroxycyclopentyl]methyl sulfamate and [(1R,2S,4R)-4-{[5-({4-[(1S)-7-chloro-4,4-difluoro-3,4-dihydro-1H-isochromen-1-yl]-2-thienyl}carbonyl)pyrimidin-4-yl]amino}-2-hydroxycyclopentyl]methyl sulfamate], for which the “Percent Inhibition” value under setting [1] was 98%. Also, the IC50 under setting [2] was under 10 nM.

Regarding `NS(=O)(=O)OC[C@H]1C[C@@H](Nc2ncncc2C(=O)c2cc(Cc3ccccc3Cl)cs2)C[C@@H]1O` [I-165, {(1R,2S,4R)-4-[(5-{[4-(2-chlorobenzyl)-2-thienyl]carbonyl}pyrimidin-4-yl)amino]-2-hydroxycyclopentyl}methyl sulfamate], the inhibition at 0.111 µM (Concentration 0.111 μM) is 91%. In addition, where the note is “class symbols A/B/C”, the IC50 was 10 to 100 nM.

For `N[C@@H](c1cccc(Br)n1)c1cc(C(=O)c2cncnc2N[C@@H]2C[C@H](COS(N)(=O)=O)[C@@H](O)C2)sc1Cl` (single isomer, unassigned) [I-18a, [(1R,2S,4R)-4-{[5-({4-[(R)-amino(6-bromopyridin-2-yl)methyl]-5-chloro-2-thienyl}carbonyl)pyrimidin-4-yl]amino}-2-hydroxycyclopentyl]methyl sulfamate or [(1R,2S,4R)-4-{[5-({4-[(S)-amino(6-bromopyridin-2-yl)methyl]-5-chloro-2-thienyl}carbonyl)pyrimidin-4-yl]amino}-2-hydroxycyclopentyl]methyl sulfamate], the “Percent Inhibition” value (Concentration 0.111 μM) was 82. Also, the 50% inhibitory concentration (IC50) (class symbols A/B/C) fell in the range of 10 to 100 nM.

As for `CN1Cc2cc(Cl)ccc2[C@@H]1c1csc(C(=O)c2cncnc2N[C@@H]2C[C@H](COS(N)(=O)=O)[C@@H](O)C2)c1` (mixture of isomers) [I-322, [(1R,2S,4R)-4-{[5-({4-[(1R)-5-chloro-2-methyl-2,3-dihydro-1H-isoindol-1-yl]-2-thienyl}carbonyl)pyrimidin-4-yl]amino}-2-hydroxycyclopentyl]methyl sulfamate and [(1R,2S,4R)-4-{[5-({4-[(1S)-5-chloro-2-methyl-2,3-dihydro-1H-isoindol-1-yl]-2-thienyl}carbonyl)pyrimidin-4-yl]amino}-2-hydroxycyclopentyl]methyl sulfamate], under setting [1], the “Percent Inhibition” value turned out to be 92%. In addition, under setting [2], the IC50 was 10 to 100 nM.

With `NS(=O)(=O)OC[C@H]1C[C@@H](Nc2ncncc2C(=O)c2ccc(Cc3cccc(Cl)c3)s2)[C@@H](F)[C@@H]1O` [I-205, {(1R,2R,3R,4R)-4-[(5-{[5-(3-Chlorobenzyl)-2-thienyl]carbonyl}pyrimidin-4-yl)amino]-3-fluoro-2-hydroxycyclopentyl}methyl sulfamate], the inhibition at 0.111 µM (Concentration 0.111 μM) was 51%. Also, the IC50 (class symbols A/B/C) is 100 to 1000 nM.

For the molecule `NS(=O)(=O)OC[C@H]1C[C@@H](Nc2ncncc2C(=O)c2cc([C@@H]3NCCc4ccc(Cl)nc43)c(Cl)s2)C[C@@H]1O` (single isomer, unassigned) [I-253b, [(1R,2S,4R)-4-{[5-({5-chloro-4-[(8S)-2-chloro-5,6,7,8-tetrahydro-1,7-naphthyridin-8-yl]-2-thienyl}carbonyl)pyrimidin-4-yl]amino}-2-hydroxycyclopentyl]methyl sulfamate or [(1R,2S,4R)-4-{[5-({5-chloro-4-[(8R)-2-chloro-5,6,7,8-tetrahydro-1,7-naphthyridin-8-yl]-2-thienyl}carbonyl)pyrimidin-4-yl]amino}-2-hydroxycyclopentyl]methyl sulfamate], the “Percent Inhibition” value (Concentration 0.111 μM) was 83. Moreover, the IC50 (class symbols A/B/C) lay within 10 to 100 nM.
